Where “and” joins values, the source holds several entries; their conditions need not be identical. Identical values can stand only once. Toxic doses and inconclusive results are not listed.
System: P388 leukemia ip, CD2F1 mice, survival T/C
Assay: NCI In Vivo Anticancer Drug Screen. Data for tumor model P388 Leukemia (intraperitoneal) in CD2F1 (CDF1) mice
Details: endpoint: median survival time, higher = longer survival
How it was run: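 Mice carrying the transplanted tumor received test compound or vehicle. Survival was recorded in each group, and the value is the treated-group measurement divided by that of the vehicle-treated control group.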

[1] = dose: 25.0 mg/kg/injection, schedule: Q01DX009 (ip), vehicle: saline with Tween-80
[2] = dose: 50.0 mg/kg/injection, schedule: Q01DX009 (ip), vehicle: Klucel (hydroxypropylcellulose) (HPC)
[3] = dose: 50.0 mg/kg/injection, schedule: Q01DX009 (ip), vehicle: saline with Tween-80
[4] = dose: 100.0 mg/kg/injection, schedule: Q01DX009 (ip), vehicle: Klucel (hydroxypropylcellulose) (HPC)
[5] = dose: 100.0 mg/kg/injection, schedule: Q01DX009 (ip), vehicle: saline with Tween-80
[6] = dose: 6.25 mg/kg/injection, schedule: Q01DX009 (ip), vehicle: saline with Tween-80
[7] = dose: 50.0 mg/kg/injection, schedule: Q01DX005 (ip), vehicle: Klucel (hydroxypropylcellulose) (HPC)
[8] = dose: 100.0 mg/kg/injection, schedule: Q01DX005 (ip), vehicle: Klucel (hydroxypropylcellulose) (HPC)
[9] = dose: 200.0 mg/kg/injection, schedule: Q01DX005 (ip), vehicle: Klucel (hydroxypropylcellulose) (HPC)

## COc1ccc(-c2coc3cc(O)cc(O)c3c2=O)cc1
[1]
  T/C: 94 % of control
[2]
  T/C: 110 % of control
[3]
  T/C: 97 % of control
[4]
  T/C: 107 % of control
[5]
  T/C: 93 % of control
dose: 200.0 mg/kg/injection, schedule: Q01DX009 (ip), vehicle: Klucel (hydroxypropylcellulose) (HPC)
  T/C: 104 % of control
dose: 400.0 mg/kg/injection, schedule: Q01DX009 (ip), vehicle: Klucel (hydroxypropylcellulose) (HPC)
  T/C: 96 % of control

## COCC1(C)CCCC2(C)C3=C(CCC(O)C3)CCC12 (stereo not given)
dose: 100.0 mg/kg/injection, schedule: Q04DX003 (ip), vehicle: saline
  T/C: 99 % of control
dose: 200.0 mg/kg/injection, schedule: Q04DX003 (ip), vehicle: saline
  T/C: 99 % of control
dose: 400.0 mg/kg/injection, schedule: Q04DX003 (ip), vehicle: saline
  T/C: 97 % of control

## O=C(c1ccc2c(c1)OCO2)S(=O)(=O)O
dose: 60.0 mg/kg/injection, schedule: Q01DX005 (ip), vehicle: saline
  T/C: 102 % of control
dose: 120.0 mg/kg/injection, schedule: Q01DX005 (ip), vehicle: saline
  T/C: 96 % of control
dose: 240.0 mg/kg/injection, schedule: Q01DX005 (ip), vehicle: saline
  T/C: 97 % of control

## CC(C)(O)[C@@H]1CC(=O)[C@]2(C)[C@H](CC[C@@]3(C)C(c4ccoc4)OC(=O)[C@H]4O[C@]432)[C@@]1(C)/C=C/C(=O)O (stereo not given in full)
dose: 0.75 mg/kg/injection, schedule: Q01DX009 (ip), vehicle: saline + alcohol
  T/C: 98 % of control
dose: 1.5 mg/kg/injection, schedule: Q01DX009 (ip), vehicle: saline + alcohol
  T/C: 100 % of control
dose: 3.0 mg/kg/injection, schedule: Q01DX009 (ip), vehicle: saline + alcohol
  T/C: 97 % of control
dose: 6.0 mg/kg/injection, schedule: Q01DX009 (ip), vehicle: saline + alcohol
  T/C: 99 % of control

## C[CH2][Sn]([F])([F])[CH2]C
dose: 6.25 mg/kg/injection, schedule: Q04DX003 (ip), vehicle: saline
  T/C: 107 % of control
dose: 12.5 mg/kg/injection, schedule: Q04DX003 (ip), vehicle: saline
  T/C: 108 % of control
dose: 25.0 mg/kg/injection, schedule: Q04DX003 (ip), vehicle: saline
  T/C: 116 % of control

## CN(C)CCC=C1c2ccccc2CCc2ccccc21
dose: 12.5 mg/kg/injection, schedule: Q01DX005 (ip), vehicle: saline
  T/C: 101 % of control
dose: 25.0 mg/kg/injection, schedule: Q01DX005 (ip), vehicle: saline
  T/C: 103 % of control
dose: 50.0 mg/kg/injection, schedule: Q01DX005 (ip), vehicle: saline
  T/C: 109 % of control and 116 % of control

## Cc1ccc(S(=O)(=O)N(CCC(c2ccccc2)c2ccccc2)S(=O)(=O)c2ccc(C)cc2)cc1
[1]
  T/C: 102 % of control
[3]
  T/C: 98 % of control
[5]
  T/C: 100 % of control

## CC(=O)OCC(=O)[C@@]1(O)CC[C@H]2[C@@H]3C[C@H](C)C4=CC(=O)CC[C@]4(C)[C@H]3[C@@H](O)C[C@@]21C
dose: 100.0 mg/kg/injection, schedule: Q04DX003 (ip), vehicle: saline with Tween-80
  T/C: 112 % of control
dose: 200.0 mg/kg/injection, schedule: Q04DX003 (ip), vehicle: saline with Tween-80
  T/C: 108 % of control
dose: 400.0 mg/kg/injection, schedule: Q04DX003 (ip), vehicle: saline with Tween-80
  T/C: 95 % of control

## CN1c2c(nc(N)[nH]c2=O)NCC1CCNc1ccc(C(=O)NC(CCC(=O)O)C(=O)O)cc1 (stereo not given)
dose: 25.0 mg/kg/injection, schedule: Q01DX009 (ip), vehicle: Klucel (hydroxypropylcellulose) (HPC)
  T/C: 115 % of control
[2]
  T/C: 115 % of control
dose: 75.0 mg/kg/injection, schedule: Q01DX005 (ip), vehicle: saline
  T/C: 100 % of control
dose: 75.0 mg/kg/injection, schedule: Q01DX005 (iv), vehicle: saline
  T/C: 100 % of control
dose: 75.0 mg/kg/injection, schedule: Q01DX009 (ip), vehicle: saline
  T/C: 105 % of control
dose: 75.0 mg/kg/injection, schedule: Q01DX009 (ip), vehicle: sodium bicarbonate
  T/C: 112 % of control
[4]
  T/C: 124 % of control
dose: 100.0 mg/kg/injection, schedule: Q01DX009 (ip), vehicle: saline
  T/C: 113 % of control
dose: 150.0 mg/kg/injection, schedule: Q01DX005 (ip), vehicle: saline
  T/C: 107 % of control
dose: 150.0 mg/kg/injection, schedule: Q01DX005 (iv), vehicle: saline
  T/C: 107 % of control
dose: 150.0 mg/kg/injection, schedule: Q01DX009 (ip), vehicle: saline
  T/C: 108 % of control
dose: 150.0 mg/kg/injection, schedule: Q01DX009 (ip), vehicle: sodium bicarbonate
  T/C: 114 % of control
dose: 300.0 mg/kg/injection, schedule: Q01DX005 (ip), vehicle: saline
  T/C: 109 % of control and 123 % of control
dose: 300.0 mg/kg/injection, schedule: Q01DX005 (iv), vehicle: saline
  T/C: 108 % of control and 113 % of control
dose: 300.0 mg/kg/injection, schedule: Q01DX009 (ip), vehicle: saline
  T/C: 116 % of control
dose: 300.0 mg/kg/injection, schedule: Q01DX009 (ip), vehicle: sodium bicarbonate
  T/C: 120 % of control
dose: 600.0 mg/kg/injection, schedule: Q01DX005 (ip), vehicle: saline
  T/C: 107 % of control and 118 % of control
dose: 600.0 mg/kg/injection, schedule: Q01DX005 (iv), vehicle: saline
  T/C: 104 % of control and 122 % of control
dose: 600.0 mg/kg/injection, schedule: Q01DX009 (ip), vehicle: saline
  T/C: 119 % of control
dose: 600.0 mg/kg/injection, schedule: Q01DX009 (ip), vehicle: sodium bicarbonate
  T/C: 122 % of control
dose: 800.0 mg/kg/injection, schedule: Q01DX009 (ip), vehicle: Klucel (hydroxypropylcellulose) (HPC)
  T/C: 99 % of control

## CN1C=CC2C(C(=O)O)CC2C1=O (stereo not given)
dose: 100.0 mg/kg/injection, schedule: Q04DX002 (ip), vehicle: saline
  T/C: 99 % of control
dose: 200.0 mg/kg/injection, schedule: Q04DX002 (ip), vehicle: saline
  T/C: 115 % of control
dose: 400.0 mg/kg/injection, schedule: Q04DX002 (ip), vehicle: saline
  T/C: 109 % of control

## COc1ccc(COCc2ccc(OC)c(O)c2)cc1O
[3]
  T/C: 101 % of control
[5]
  T/C: 99 % of control

## O=C(Nc1ccc(Br)cn1)c1sc2ccccc2c1Cl
[6]
  T/C: 99 % of control
dose: 12.5 mg/kg/injection, schedule: Q01DX009 (ip), vehicle: saline with Tween-80
  T/C: 98 % of control
[1]
  T/C: 99 % of control
[5]
  T/C: 92 % of control
dose: 200.0 mg/kg/injection, schedule: Q01DX009 (ip), vehicle: saline with Tween-80
  T/C: 87 % of control

## [CH3][Sn]([CH3])([N]=C=S)[N]=C=S.c1ccc(-c2nnc(-c3ccccn3)nc2-c2ccccc2)cc1
dose: 60.0 mg/kg/injection, schedule: Q01DX005 (ip), vehicle: Klucel (hydroxypropylcellulose) (HPC)
  T/C: 100 % of control
dose: 120.0 mg/kg/injection, schedule: Q01DX005 (ip), vehicle: Klucel (hydroxypropylcellulose) (HPC)
  T/C: 104 % of control

## CN(C)C1C(O)C2Oc3c(cc(O)c4c3C(=O)c3cc5c(c(O)c3C4=O)C(NC3CCCCC3)CC(C)(O)C5)C(C)(O2)C1O (stereo not given)
dose: 2.5 mg/kg/injection, schedule: Q01DX009 (ip), vehicle: other
  T/C: 102 % of control
dose: 5.0 mg/kg/injection, schedule: Q01DX009 (ip), vehicle: other
  T/C: 105 % of control
dose: 10.0 mg/kg/injection, schedule: Q01DX009 (ip), vehicle: other
  T/C: 112 % of control
dose: 40.0 mg/kg/injection, schedule: Q01DX009 (ip), vehicle: other
  T/C: 121 % of control

## COc1cc2c(cc1C(C)c1ccc(C)cc1)OCO2 (stereo not given)
[7]
  T/C: 103 % of control
[8]
  T/C: 110 % of control
[9]
  T/C: 114 % of control

## Cc1c(-c2ccccc2)ccnc1/C=N/NC(=S)Nc1ccc(N(C)C)cc1
dose: 3.12 mg/kg/injection, schedule: Q01DX009 (ip), vehicle: saline with Tween-80
  T/C: 119 % of control
[6]
  T/C: 153 % of control

## Cc1ccccc1C(C)C[n+]1cccc(C)c1C (stereo not given)
dose: 6.25 mg/kg/injection, schedule: Q01DX005 (ip), vehicle: saline with Tween-80
  T/C: 101 % of control
dose: 12.5 mg/kg/injection, schedule: Q01DX005 (ip), vehicle: saline with Tween-80
  T/C: 101 % of control

## COc1ccc(/C=C\C(C)=N\NC(=S)Nc2ccc(Br)cc2)cc1
[7]
  T/C: 97 % of control
[8]
  T/C: 96 % of control
[9]
  T/C: 89 % of control

## CN(C)CCCNc1ccc(O)c2sc3ccccc3c(=O)c12
dose: 3.13 mg/kg/injection, schedule: Q01DX009 (ip), vehicle: saline
  T/C: 101 % of control
dose: 6.25 mg/kg/injection, schedule: Q01DX009 (ip), vehicle: saline
  T/C: 103 % of control
dose: 12.5 mg/kg/injection, schedule: Q01DX009 (ip), vehicle: saline
  T/C: 103 % of control
dose: 25.0 mg/kg/injection, schedule: Q01DX009 (ip), vehicle: saline
  T/C: 100 % of control
